Like-named read-outs stand apart in the source and are kept apart here.

Five molecules from US7592367B2, “Compounds from Garcinia hanburyi, their use in treating cancer and method of separating epimers thereof” (priority 2005, dated 2009) can be followed below.

The subject of data set [1] is human leukemia K562 (K562/S) cell line.
Protocol: (§1) Cytotoxicity Assay: Both epimers were tested for their cytotoxicities against human leukemia K562 (K562/S) and doxorubicin-resistant K562 (K562/R) cell lines, using the SRB method previously described with doxorubicin being the positive control. The OD data were recorded in X±S, and the IC50 values were calculated with sigmoidal plot.
Data set [2] relates to doxorubicin-resistant K562 (K562/R) cell line.
Protocol: as §1
Data set [3] has as its system human leukemia K562 (K562/S) cell line. The data set can be described thus: MTT cytotoxicity assay, doxorubicin-sensitive K562. A general note: Tetrazolium dyes change colour on reduction, which living cells bring about.
Protocol: Both doxorubicin-resistant (K562/R) and -sensitive K562 (K562/S) cell sublines, purchased from Tianjin Instute of Hematopathy, the Chinese Academy of Medical Sciences, China, were cultured in PRMI1640 (Gibco, USA) medium and supplemented with 10 fetal bovine serums at 37° C. in a humidified incubator with 5% CO2. MTT assay was performed using a reported method [12]. Cell lines were seeded into 96-well plates at 6000 viable cells per well. The test chemicals (ADR, DMSO, Th1 and Th2) with different concentrations were loaded in a final volume of 200 μL per well. After 44 hours of incubation, MTT (5 g/L) was added to each well in a volume of 10 μl and incubated for 4 hours. Afterwards, the medium was removed and 200 μl of Me2SO (37° C.) was added and shaken for 5 minutes. A 96-well microtiter plate reader was used to determine absorbance values at 570 nm. Mean value of each concentration (n=3 wells) was obtained. Absorbance of untreated controls was taken as 100%. Survival rate was calculated as follows: Cell survival rate (%)=(T−B)/(U−B)×100%, T (treated) is absorbance of chemically treated cells, U (untreated) is the absorbance of untreated cells, and B (blank) is the absorbance when neither cells nor chemicals was added.
Data set [4] deals with doxorubicin-resistant K562 (K562/R) cell line. The experiment in a line: MTT cytotoxicity assay, doxorubicin-resistant K562. The class given is cell-based, human. To be noted: read-out: Cytotoxicity IC50 against K562/R. The method, then:
MTT assay was performed using a reported method. […] Absorbance of untreated controls was taken as 100%. […] An aliquot of the supernatant was analyzed by HPLC.

Data set [5] concerns human cytochrome P-450 enzymes (1A2, 2A6, 2D6, 2E1, 3A4). The data set can be described thus: CYP inhibition in human liver microsomes, five isoforms other than CYP2C9. The class given is in vitro ADME. Particulars: probe reactions. A general note: Microsomes from liver hold many membrane-bound enzymes, among them those of drug oxidation.
A further data set addresses T1, CYP2C9 (Homo sapiens, UniProt P11712).
T1 construct: HLM were prepared from liver tissue as described in the literature [13]; from tissue; host or cells: human liver microsomes prepared from an autopsy liver sample (person)
Format: in vitro ADME. To be noted: microsomes.

Data set [6] has as its system human leukemia K562 (K562/S) cell line. The data set can be described thus: SRB cytotoxicity assay, K562/S. To be noted: K562, read-out: Cytotoxicity IC50 against K562/S.
Protocol: as §1
Data set [7] has as its system doxorubicin-resistant K562 (K562/R) cell line. The data set can be described thus: SRB cytotoxicity assay, doxorubicin-resistant K562. To be noted: Homo sapiens, K-562R, read-out: Cytotoxicity IC50 against K562/R.
Protocol: as §1
Where [8] appears, read: Homo sapiens, K562, read-out: Cytotoxicity IC50 against K562/S.

T1 sequence (P11712 whole entry): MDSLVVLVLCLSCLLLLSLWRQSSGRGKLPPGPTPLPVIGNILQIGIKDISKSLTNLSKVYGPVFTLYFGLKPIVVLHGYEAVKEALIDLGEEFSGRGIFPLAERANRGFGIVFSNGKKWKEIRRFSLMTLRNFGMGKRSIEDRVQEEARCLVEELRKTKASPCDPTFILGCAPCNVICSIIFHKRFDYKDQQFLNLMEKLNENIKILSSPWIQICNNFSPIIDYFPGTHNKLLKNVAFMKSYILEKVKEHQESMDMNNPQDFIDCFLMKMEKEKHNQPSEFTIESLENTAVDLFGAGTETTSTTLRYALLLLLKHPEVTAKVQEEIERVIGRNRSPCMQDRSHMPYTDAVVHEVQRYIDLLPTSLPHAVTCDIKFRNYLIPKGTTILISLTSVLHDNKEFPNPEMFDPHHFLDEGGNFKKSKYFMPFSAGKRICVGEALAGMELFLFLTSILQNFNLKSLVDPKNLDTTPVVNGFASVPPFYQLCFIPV

30-hydroxyepigambogic acid [compound 2]: the IC50 in data set [1] is 3.61 ± 0.17 µM; in data set [2], 4.49 ± 0.31 µM.

As for 30-hydroxygambogic acid [compound 1], the values for the IC50 in data set [1] and in data set [2] were 1.27 ± 0.15 µM and 2.89 ± 0.35 µM, respectively.

Consider `CC(C)=CCC[C@]1(C)C=Cc2c(O)c3c(c(CC=C(C)C)c2O1)O[C@]12C(=C[C@@H]4C[C@H]1C(C)(C)O[C@@]2(C/C=C(/C)C(=O)O)C4=O)C3=O` (single isomer, unassigned) [Epimer 1, gambogic acid], for which the IC50 in data set [3] (setting [8]) turned out to be 0.89 µM; in data set [4] (Homo sapiens, K-562R) it was 1.32 µM. The “Inhibitory effect toward five human cytochrome P-450 enzymes other than CYP2C9” value in data set [5] is reported as “little inhibitory effects”.

As for `CC(C)=CCCC1(C)C=Cc2c(O)c3c(c(CC=C(C)C)c2O1)OC12C(=CC4CC1C(C)(C)OC2(CC=C(C)C(=O)O)C4=O)C3=O` (single isomer, unassigned; epimer 2) [Epimer 2, epigambogic acid], the IC50 in data set [3] (read-out: Cytotoxicity IC50 against K562/S, K562/S, Example 1 MTT assay, Table 4 columns marked ^a) was determined as 0.86 µM; in data set [4] (doxorubicin-resistant K562/R, Example 1 MTT assay, Table 4 columns marked ^a), 1.11 µM. Further, the “CYP2C9 inhibitory effect, S-epimer relative to R-epimer” value at CYP2C9 was 20 folds. Moreover, in data set [5], the “Inhibitory effect toward five human cytochrome P-450 enzymes other than CYP2C9” value is “little inhibitory effects”.

As to `COc1cccc2c1C(=O)c1c(O)c3c(c(O)c1C2=O)C[C@@](O)(C(=O)CO)C[C@@H]3O[C@H]1C[C@H](N)[C@H](O)[C@H](C)O1` [Doxorubicin, doxorubicin, reference compound], the IC50 in data set [6] came out at 0.11 ± 0.01 µM; in data set [3] (setting [8]), 0.66 µM; in data set [7], 1.79 ± 0.17 µM; in data set [4] (Homo sapiens, K-562R, doxorubicin-resistant K562/R, Example 1 MTT assay, Table 4 columns marked ^a), 10.8 µM.
